Measured values as given in patent publication US20140206681A1, “BTK INHIBITORS” (priority 2013, published 2014).
pIC50: −log10 of the molar value.

Assays:
HeLa cells = assay: [3H]Adenosine uptake functional cellular assay; format: cell-based; details: Homo sapiens, HeLa, accumulation of [3H]adenosine into HeLa cells; compound range 10 μM to […]; read-out: Adenosine uptake inhibition IC50
Outline: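 Inhibition of adenosine uptake was measured in HeLa cells (ATCC CCL-2) by following accumulation of tritiated adenosine. Cells were kept overnight at 37° C. with 5% (v/v) CO2, then switched to 40 μL HBSS plus 5% (v/v) FBS. 20 μL of 500 nM [3H]adenosine was added, and uptake was counted on a Topcount NXT reader.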

[1] = target: T1, BTK enzyme (recombinant full-length BTK, hBTK) (Homo sapiens, UniProt Q06187); assay: BTK enzyme activity assay, LANCE TR-FRET; format: biochemical; details: 50 pM hBTK, 2 μM biotin-A5-peptide, 25 μM ATP; 60 min compound & enzyme incubation; read-out: IC50 BTK activity value
T1 construct: recombinant protein from baculovirus-transfected Sf9 cells: full-length BTK, 6HIS-tag cleaved; 6HIS (cleaved yes); made in house; host or cells: baculovirus-transfected Sf9 cells
T1 sequence (Q06187 whole entry): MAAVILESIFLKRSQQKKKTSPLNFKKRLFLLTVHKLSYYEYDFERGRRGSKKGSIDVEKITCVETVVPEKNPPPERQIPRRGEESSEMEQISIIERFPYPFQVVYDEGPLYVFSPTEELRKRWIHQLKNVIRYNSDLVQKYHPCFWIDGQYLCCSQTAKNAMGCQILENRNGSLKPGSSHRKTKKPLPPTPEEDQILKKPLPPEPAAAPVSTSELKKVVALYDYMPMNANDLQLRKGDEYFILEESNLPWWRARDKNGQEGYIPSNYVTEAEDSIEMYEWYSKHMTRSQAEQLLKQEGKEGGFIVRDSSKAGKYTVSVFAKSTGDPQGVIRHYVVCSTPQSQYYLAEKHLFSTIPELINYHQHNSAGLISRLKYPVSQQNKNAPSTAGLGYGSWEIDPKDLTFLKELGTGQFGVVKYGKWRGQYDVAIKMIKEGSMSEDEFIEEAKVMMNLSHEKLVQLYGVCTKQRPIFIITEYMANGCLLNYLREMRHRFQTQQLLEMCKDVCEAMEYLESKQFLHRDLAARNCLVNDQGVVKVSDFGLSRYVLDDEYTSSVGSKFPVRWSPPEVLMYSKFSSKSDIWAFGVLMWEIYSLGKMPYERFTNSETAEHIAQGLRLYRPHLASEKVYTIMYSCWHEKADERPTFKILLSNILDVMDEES

| pIC50 (HeLa cells) | pIC50 [1] | Structure (SMILES) |
| --- | --- | --- |
| 5.92 | 8.70 | CCOc1cc(C(=O)Nc2cc(C3CC3)ccn2)c(F)cc1-c1nc([C@@H]2CC[C@H]3CCC(=O)N3C2)n2ccnc(N)c12 [Example 137, 4-{8-amino-3-[(6R,8aS)-3-oxooctahydroindolizin-6-yl]imidazo[1,5-a]pyrazin-1-yl}-N-(4-cyclopropylpyridin-2-yl)-5-ethoxy-2-fluorobenzamide] |
| 5.86 | 6.87 | Nc1nccn2c([C@@H]3CC[C@H]4CCC(=O)N4C3)nc(-c3ccc(C(=O)Nc4cc(C(F)(F)F)ccn4)cc3OC3CCCCC3)c12 [Example 138, 4-{8-amino-3-[(6R,8aS)-3-oxooctahydroindolizin-6-yl]imidazo[1,5-a]pyrazin-1-yl}-3-(cyclohexyloxy)-N-[4-(trifluoromethyl)pyridin-2-yl]benzamide] |
| 5.89 | 8.24 | CC(C)Oc1cc(C(=O)Nc2cc(C(F)(F)F)ccn2)ccc1-c1nc([C@@H]2CC[C@H]3CCC(=O)N3C2)n2ccnc(N)c12 [Example 139, 4-{8-amino-3-[(6R,8aS)-3-oxooctahydroindolizin-6-yl]imidazo[1,5-a]pyrazin-1-yl}-3-(1-methylethoxy)-N-[4-(trifluoromethyl)pyridin-2-yl]benzamide] |
| 6.12 | 8.34 | Nc1nccn2c([C@@H]3CC[C@H]4CCC(=O)N4C3)nc(-c3ccc(C(=O)Nc4cc(C(F)(F)F)ccn4)cc3OC3CCC3)c12 [Example 140, 4-{8-amino-3-[(6R,8aS)-3-oxooctahydroindolizin-6-yl]imidazo[1,5-a]pyrazin-1-yl}-3-(cyclobutyloxy)-N-[4-(trifluoromethyl)pyridin-2-yl]benzamide] |
| 6.08 | 7.63 | Nc1nccn2c([C@@H]3CC[C@H]4CCC(=O)N4C3)nc(-c3ccc(C(=O)Nc4cc(C(F)(F)F)ccn4)cc3OC3CCCC3)c12 [Example 141, 4-{8-amino-3-[(6R,8aS)-3-oxooctahydroindolizin-6-yl]imidazo[1,5-a]pyrazin-1-yl}-3-(cyclopentyloxy)-N-[4-(trifluoromethyl)pyridin-2-yl]benzamide] |
| 5.93 | 7.76 | CC(C)(C)COc1cc(C(=O)Nc2cc(C(F)(F)F)ccn2)ccc1-c1nc([C@@H]2CC[C@H]3CCC(=O)N3C2)n2ccnc(N)c12 [Example 142, 4-{8-amino-3-[(6R,8aS)-3-oxooctahydroindolizin-6-yl]imidazo[1,5-a]pyrazin-1-yl}-3-(2,2-dimethylpropoxy)-N-[4-(trifluoromethyl)pyridin-2-yl]benzamide] |
| 5.62 | 9.36 | Cn1nc(NC(=O)c2ccc(-c3nc([C@@H]4CC[C@H]5CCC(=O)N5C4)n4c(Cl)cnc(N)c34)c(OC3CC3)c2)cc1C(F)(F)F [Example 145, 4-{8-amino-5-chloro-3-[(6R,8aS)-3-oxooctahydroindolizin-6-yl]imidazo[1,5-a]pyrazin-1-yl}-3-(cyclopropyloxy)-N-[1-methyl-5-(trifluoromethyl)-1H-pyrazol-3-yl]benzamide] |
| 5.30 | 9.23 | Cn1nc(NC(=O)c2ccc(-c3nc([C@@H]4CC[C@H]5CCC(=O)N5C4)n4ccnc(N)c34)c(OC3CC3)c2)cc1C(F)(F)F [Example 146, 4-{8-amino-3-[(6R,8aS)-3-oxooctahydroindolizin-6-yl]imidazo[1,5-a]pyrazin-1-yl}-3-(cyclopropyloxy)-N-[1-methyl-5-(trifluoromethyl)-1H-pyrazol-3-yl]benzamide] |
| 6.02 | 9.12 | Nc1ncc(Cl)n2c([C@@H]3CC[C@H]4CCC(=O)N4C3)nc(-c3ccc(C(=O)Nc4cc(C5CC5)ccn4)cc3OC3CC3)c12 [Example 147, 4-{8-amino-5-chloro-3-[(6R,8aS)-3-oxooctahydroindolizin-6-yl]imidazo[1,5-a]pyrazin-1-yl}-3-(cyclopropyloxy)-N-(4-cyclopropylpyridin-2-yl)benzamide] |
| 5.97 | 8.85 | Nc1nccn2c([C@@H]3CC[C@H]4CCC(=O)N4C3)nc(-c3ccc(C(=O)Nc4cc(C5CC5)ccn4)cc3OC3CC3)c12 [Example 148, 4-{8-amino-3-[(6R,8aS)-3-oxooctahydroindolizin-6-yl]imidazo[1,5-a]pyrazin-1-yl}-3-(cyclopropyloxy)-N-(4-cyclopropylpyridin-2-yl)benzamide] |
| ≤ 5.00 | 7.01 | Cn1nc(NC(=O)c2ccc(-c3nc([C@@H]4CC[C@H]5CCC(=O)N5C4)n4ccnc(N)c34)c(OC3CNC3)c2)cc1C(F)(F)F [Example 149, 4-{8-amino-3-[(6R,8aS)-3-oxooctahydroindolizin-6-yl]imidazo[1,5-a]pyrazin-1-yl}-3-(azetidin-3-yloxy)-N-[1-methyl-5-(trifluoromethyl)-1H-pyrazol-3-yl]benzamide] |
| 5.64 | 8.74 | Cn1nc(NC(=O)c2cc(OC3CC3)c(-c3nc([C@@H]4CC[C@H]5CCC(=O)N5C4)n4c(Cl)cnc(N)c34)cc2F)cc1C(F)(F)F [Example 150, 4-{8-amino-5-chloro-3-[(6R,8aS)-3-oxooctahydroindolizin-6-yl]imidazo[1,5-a]pyrazin-1-yl}-5-(cyclopropyloxy)-2-fluoro-N-[1-methyl-5-(trifluoromethyl)-1H-pyrazol-3-yl]benzamide] |
| 5.95 | 9.12 | CCOc1cc(C(=O)Nc2cc(C(F)(F)F)ccn2)c(F)cc1-c1nc([C@@H]2CC[C@H]3CCC(=O)N3C2)n2ccnc(N)c12 [Example 151, 4-{8-amino-3-[(6R,8aS)-3-oxooctahydroindolizin-6-yl]imidazo[1,5-a]pyrazin-1-yl}-5-ethoxy-2-fluoro-N-[4-(trifluoromethyl)pyridin-2-yl]benzamide] |
| 5.72 | 8.89 | CCOc1cc(C(=O)Nc2cc(C(F)(F)F)n(C)n2)c(F)cc1-c1nc([C@@H]2CC[C@H]3CCC(=O)N3C2)n2ccnc(N)c12 [Example 152, 4-{8-amino-3-[(6R,8aS)-3-oxooctahydroindolizin-6-yl]imidazo[1,5-a]pyrazin-1-yl}-5-ethoxy-2-fluoro-N-[1-methyl-5-(trifluoromethyl)-1H-pyrazol-3-yl]benzamide] |
| 6.30 | 9.80 | Nc1ncc(Cl)n2c([C@@H]3CC[C@H]4CCC(=O)N4C3)nc(-c3ccc(C(=O)Nc4cc(C(F)(F)F)ccn4)cc3)c12 [Example 153, 4-{8-amino-5-chloro-3-[(6R,8aS)-3-oxooctahydroindolizin-6-yl]imidazo[1,5-a]pyrazin-1-yl}-N-[4-(trifluoromethyl)pyridin-2-yl]benzamide] |
| 5.82 | 8.41 | CC(=O)Oc1cc(C(=O)Nc2cc(C(F)(F)F)ccn2)ccc1-c1nc([C@@H]2CC[C@H]3CCC(=O)N3C2)n2ccnc(N)c12 [Example 155, 2-{8-amino-3-[(6R,8aS)-3-oxooctahydroindolizin-6-yl]imidazo[1,5-a]pyrazin-1-yl}-5-{[4-(trifluoromethyl)pyridin-2-yl]carbamoyl}phenyl acetate] |
| 5.76 | 8.36 | CC(=O)Nc1nccn2c([C@@H]3CC[C@H]4CCC(=O)N4C3)nc(-c3ccc(C(=O)Nc4cc(C(F)(F)F)ccn4)cc3O)c12 [Example 156, 4-{8-(acetylamino)-3-[(6R,8aS)-3-oxooctahydroindolizin-6-yl]imidazo[1,5-a]pyrazin-1-yl}-3-hydroxy-N-[4-(trifluoromethyl)pyridin-2-yl]benzamide] |
| 5.75 | 6.54 | COCCN(C(=O)c1ccc(-c2nc([C@@H]3CC[C@H]4CCC(=O)N4C3)n3ccnc(N)c23)c(O)c1)c1cc(C(F)(F)F)ccn1 [Example 157, 4-{8-amino-3-[(6R,8aS)-3-oxooctahydroindolizin-6-yl]imidazo[1,5-a]pyrazin-1-yl}-3-hydroxy-N-(2-methoxyethyl)-N-[4-(trifluoromethyl)pyridin-2-yl]benzamide] |
| 5.68 | 9.35 | CCOc1cc(C(=O)Nc2ncc(C)s2)ccc1-c1nc([C@@H]2CC[C@H]3CCC(=O)N3C2)n2c(Cl)cnc(N)c12 [Example 158, 4-{8-amino-5-chloro-3-[(6R,8aS)-3-oxooctahydroindolizin-6-yl]imidazo[1,5-a]pyrazin-1-yl}-3-ethoxy-N-(5-methyl-1,3-thiazol-2-yl)benzamide] |
| 5.91 | 9.20 | CCOc1cc(C(=O)Nc2ncc(C)s2)ccc1-c1nc([C@@H]2CC[C@H]3CCC(=O)N3C2)n2ccnc(N)c12 [Example 159, 4-{8-amino-3-[(6R,8aS)-3-oxooctahydroindolizin-6-yl]imidazo[1,5-a]pyrazin-1-yl}-3-ethoxy-N-(5-methyl-1,3-thiazol-2-yl)benzamide] |
| 6.54 | 9.55 | Nc1ncc(F)n2c([C@@H]3CC[C@H]4CCC(=O)N4C3)nc(-c3ccc(C(=O)Nc4cc(C(F)(F)F)ccn4)cc3)c12 [Example 160, 4-{8-amino-5-fluoro-3-[(6R,8aS)-3-oxooctahydroindolizin-6-yl]imidazo[1,5-a]pyrazin-1-yl}-N-[4-(trifluoromethyl)pyridin-2-yl]benzamide] |
| 5.81 | 9.00 | CCOc1cc(C(=O)Nc2cc(C(F)(F)F)ccn2)ccc1-c1nc([C@@H]2CC[C@H]3CCC(=O)N3C2)n2c(F)cnc(N)c12 [Example 161, 4-{8-amino-5-fluoro-3-[(6R,8aS)-3-oxooctahydroindolizin-6-yl]imidazo[1,5-a]pyrazin-1-yl}-3-ethoxy-N-[4-(trifluoromethyl)pyridin-2-yl]benzamide] |
| 5.81 | 8.89 | COc1cc(C(=O)Nc2cc(C(F)(F)F)ccn2)ccc1-c1nc([C@@H]2CC[C@H]3CCC(=O)N3C2)n2c(F)cnc(N)c12 [Example 162, 4-{8-amino-5-fluoro-3-[(6R,8aS)-3-oxooctahydroindolizin-6-yl]imidazo[1,5-a]pyrazin-1-yl}-3-methoxy-N-[4-(trifluoromethyl)pyridin-2-yl]benzamide] |
